We go through one molecule from patent US20040157809A1, “Composition comprising an androgen receptor blocker and an insulin sensitizing agent and use thereof for treatment of polycystic ovary syndrome” (priority 2001, published 2004).

In data set [1] the test system is women with ovarian hyperandrogenism. Description: Example 1: ovulation assessment by weekly serum progesterone. The format is in vivo, human. As to conditions: after 9 months; weekly serum progesterone measurements. An excerpt: Prior to start of treatment, ovulatory function was documented twice (months −3 and −1) by measuring serum progesterone concentrations in 4 consecutive samples obtained with an interval of 1 week. […] The ovulation results before start of treatment are the average of the results obtained during month -3 and -1, whereas the 3 months results are the mean of those obtained after 2 and 4 months on treatment.

For data set [2] the test system is unchanged. Description: Example 1: tolerability and safety variables (blood count, liver-kidney function). As to conditions: flutamide 250 mg/day. Type of data set: in vivo, human. An excerpt:
After 6 months on either monotherapy or combined therapy, fasting glucose and insulin were reassessed together with serum LH (luteinizing hormone), FSH (Follicle stimulating hormone), estradiol, testosterone, androstenedione, DHEAS, SHBG, and lipid profile. Blood count and liver-kidney function were also screened after 1, 3, and 6 months, as additional safety variables.

As to `CC(C)C(=O)Nc1ccc([N+](=O)[O-])c(C(F)(F)F)c1` [Flutamide, 2-methyl-N-[4-nitro-3(trifluoromethyl)phenyl] popanamide], the “monthly fraction of ovulatory cycles” value in data set [1] is reported as 20%. In data set [2], the “women complaining of dry skin” value was 1 of 10.
